Here are results for 20 molecules from patent publication US10167257B2, “Indole derivatives for use in medicine” (IOmet Pharma Ltd., priority 2014, dated 2019).

In test [1] the target is T1, TDO (A172 cells) (Homo sapiens, UniProt P48775).
T1 construct: This assay utilised cancer cells which expressed either TDO or IDO; host or cells: A172 human glioblastoma cells
In words: TDO cell-based assay (A172), kynurenine production. The following applies: A172 human glioblastoma cells, 500 μM L-Trp, 48 h, kynurenine by absorbance at 490 nm. An excerpt:
(§1) Two different types of assay were employed: 1. A TDO and IDO biochemical coupled assay which utilised recombinantly produced and purified TDO and IDO enzymes in combination with the enzyme formamidase. This coupled enzyme system allowed conversion of N-formylkynurenine produced by TDO or IDO activity to kynurenine which was then quantified by fluorescence following addition of Erhlich's Reagent. 2. A cell-based assay for detecting the effect of test compounds on kynurenine production in two different cancer cell types. This assay utilised cancer cells which expressed either TDO or IDO and as such was used as a means of testing compound activity at these two enzymes in a cell-based context. The protocols for these are set out below.
(§2) A172 human glioblastoma (ATCC) were grown in DMEM+2 mM L-glutamine medium supplemented with 10% foetal bovine serum and SKOV-3 ovary adenocarcinoma (ATCC) cells were grown in McCoys 5A+L-glutamax medium supplemented with 15% foetal bovine serum. On the day of assay, cells were detached using trypsin-EDTA (0.25% v/v), re-suspended in assay media (RPMI 1640 phenol red free+L-glutamine supplemented with 10% dialysed foetal bovine serum). A172 cells were seeded at 30K cells per well and SKOV-3 cells at 40K cells per well into 96-well plates containing test samples/vehicle control together with 500 μM L-Trp. Cells were then incubated for 48 h at 37° C., 5% CO2. In SK-OV-3 cells, IFNγ was also added at 500 ng/ml for the 48 h incubation in order to induce expression of IDO. Plates were centrifuged and the supernatant was removed and incubated for 5 min in the presence of 1% Erhlich's reagent. Kynurenine levels were then quantified by measuring absorbance at 490 nm.

Test [2] addresses T2, IDO (SKOV-3 cells) (Homo sapiens, UniProt P14902).
T2 construct: This assay utilised cancer cells which expressed either TDO or IDO; host or cells: SKOV-3 ovary adenocarcinoma cells, IFNγ-induced
The experiment in a line: IDO cell-based assay (SKOV-3, IFNγ-induced), kynurenine production. Particulars: SKOV-3 ovary adenocarcinoma cells, IFNγ 500 ng/ml, 500 μM L-Trp, 48 h, kynurenine by absorbance at 490 nm.
Description: as §1, §2

T2 sequence (P14902 whole entry): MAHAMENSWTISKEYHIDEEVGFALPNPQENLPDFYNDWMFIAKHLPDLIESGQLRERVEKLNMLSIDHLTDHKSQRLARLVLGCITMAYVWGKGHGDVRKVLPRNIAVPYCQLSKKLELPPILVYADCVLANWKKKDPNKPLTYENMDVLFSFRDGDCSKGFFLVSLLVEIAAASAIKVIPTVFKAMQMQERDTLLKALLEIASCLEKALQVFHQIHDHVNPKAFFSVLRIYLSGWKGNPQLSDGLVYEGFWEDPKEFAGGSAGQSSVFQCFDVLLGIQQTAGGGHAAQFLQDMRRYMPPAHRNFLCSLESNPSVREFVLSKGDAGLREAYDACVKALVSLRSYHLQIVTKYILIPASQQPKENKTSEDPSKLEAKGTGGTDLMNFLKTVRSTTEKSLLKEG
T1 sequence (P48775 whole entry): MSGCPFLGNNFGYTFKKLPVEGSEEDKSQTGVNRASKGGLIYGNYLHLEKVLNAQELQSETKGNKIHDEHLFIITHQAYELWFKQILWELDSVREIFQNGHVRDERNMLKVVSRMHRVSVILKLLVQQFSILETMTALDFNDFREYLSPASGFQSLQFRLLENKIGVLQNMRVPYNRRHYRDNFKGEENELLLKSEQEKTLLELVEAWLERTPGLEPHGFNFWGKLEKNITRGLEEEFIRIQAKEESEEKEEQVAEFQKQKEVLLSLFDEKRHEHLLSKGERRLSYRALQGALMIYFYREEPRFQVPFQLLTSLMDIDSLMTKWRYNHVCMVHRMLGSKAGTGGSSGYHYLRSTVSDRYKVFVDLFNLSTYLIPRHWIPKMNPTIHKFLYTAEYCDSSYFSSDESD

With `O=C(Nc1cccc2[nH]ncc12)c1cc2cc(F)ccc2[nH]1` [Compound 1], the “TDO cellular assay (A172) pIC50” value in test [1] is given as “− (− = pIC50 <4.50)”. Also, the “IDO cellular assay (SKOV3) pIC50” value in test [2] was “++ (++ = pIC50 5.00-<5.50)”.

For the molecule `O=C(Nc1cccc2cnccc12)c1cc2ccc(F)cc2[nH]1` [Compound 2], the “TDO cellular assay (A172) pIC50” value in test [1] is reported as “− (− = pIC50 <4.50)”. In addition, in test [2], the “IDO cellular assay (SKOV3) pIC50” value is “++ (++ = pIC50 5.00-<5.50)”.

On to `COc1ccc2cc(C(=O)Nc3cccc4ccccc34)[nH]c2c1` [Compound 3], for which the “TDO cellular assay (A172) pIC50” value in test [1] is “− (− = pIC50 <4.50)”. Moreover, in test [2], the “IDO cellular assay (SKOV3) pIC50” value is on record as “+++ (+++ = pIC50 ≥5.50)”.

As for `CC(NC(=O)c1cc2cc(F)ccc2[nH]1)c1ccccc1` (stereo not shown) [Compound 4], the “TDO cellular assay (A172) pIC50” value in test [1] is given as “+ (+ = pIC50 4.50-<5.00)”. For the same molecule, in test [2], the “IDO cellular assay (SKOV3) pIC50” value is “++ (++ = pIC50 5.00-<5.50)”.

`O=C(NCc1ccncc1)c1cc2cc(Cl)ccc2[nH]1` [Compound 5]: in test [1], the “TDO cellular assay (A172) pIC50” value was “− (− = pIC50 <4.50)”. Further, the “IDO cellular assay (SKOV3) pIC50” value in test [2] is listed as “+ (+ = pIC50 4.50-<5.00)”.

For `O=C(NC1CCc2ccccc21)c1cc2ccccc2[nH]1` (stereo not shown) [Compound 6], in test [1], the “TDO cellular assay (A172) pIC50” value was “+ (+ = pIC50 4.50-<5.00)”. In test [2], the “IDO cellular assay (SKOV3) pIC50” value is given as “+ (+ = pIC50 4.50-<5.00)”.

For the molecule `COc1ccc2cc(C(=O)Nc3cccc4ncccc34)[nH]c2c1` [Compound 7], in test [1], the “TDO cellular assay (A172) pIC50” value is on record as “− (− = pIC50 <4.50)”. For the same molecule, the “IDO cellular assay (SKOV3) pIC50” value in test [2] is given as “+++ (+++ = pIC50 ≥5.50)”.

Take `CN(C)c1ncc2c(n1)CCC[C@H]2NC(=O)c1cc2cc(F)ccc2[nH]1` [Compound 8]: the “TDO cellular assay (A172) pIC50” value in test [1] is “− (− = pIC50 <4.50)”. For the same molecule, in test [2], the “IDO cellular assay (SKOV3) pIC50” value was “+ (+ = pIC50 4.50-<5.00)”.

Regarding `O=C(NCc1ccc(Cl)cc1)c1cc2ccccc2[nH]1` [Compound 9], the “TDO cellular assay (A172) pIC50” value in test [1] was “− (− = pIC50 <4.50)”. Also, in test [2], the “IDO cellular assay (SKOV3) pIC50” value is “+++ (+++ = pIC50 ≥5.50)”.

Take `O=C(NCc1ccccc1)c1cc2ccccc2[nH]1` [Compound 10]: the “TDO cellular assay (A172) pIC50” value in test [1] was “+ (+ = pIC50 4.50-<5.00)”. Further, in test [2], the “IDO cellular assay (SKOV3) pIC50” value is “− (− = pIC50 <4.50)”.

As for `Cc1ccc(C(C)NC(=O)c2cc3ccccc3[nH]2)o1` (stereo not shown) [Compound 11], in test [1], the “TDO cellular assay (A172) pIC50” value is “++ (++ = pIC50 5.00-<5.50)”. The “IDO cellular assay (SKOV3) pIC50” value in test [2] is “++ (++ = pIC50 5.00-<5.50)”.

As for `O=C(NC(c1ccccc1)C1CC1)c1cc2c(F)cccc2[nH]1` (stereo not shown) [Compound 12], in test [1], the “TDO cellular assay (A172) pIC50” value is “− (− = pIC50 <4.50)”. For the same molecule, the “IDO cellular assay (SKOV3) pIC50” value in test [2] is “+++ (+++ = pIC50 ≥5.50)”.

On to `O=C(NCc1cccs1)c1cc2ccccc2[nH]1` [Compound 13], for which the “TDO cellular assay (A172) pIC50” value in test [1] was “− (− = pIC50 <4.50)”. For the same molecule, the “IDO cellular assay (SKOV3) pIC50” value in test [2] is “+ (+ = pIC50 4.50-<5.00)”.

Regarding `CC(NC(=O)c1cc2ccccc2[nH]1)c1cccc(Cl)c1` (stereo not shown) [Compound 14], the “TDO cellular assay (A172) pIC50” value in test [1] is “− (− = pIC50 <4.50)”. Moreover, in test [2], the “IDO cellular assay (SKOV3) pIC50” value is on record as “++ (++ = pIC50 5.00-<5.50)”.

On to `Cc1ccc2[nH]c(C(=O)NC(C)c3cccc(F)c3)cc2c1` (stereo not shown) [Compound 15], for which the “TDO cellular assay (A172) pIC50” value in test [1] is recorded as “++ (++ = pIC50 5.00-<5.50)”. Further, the “IDO cellular assay (SKOV3) pIC50” value in test [2] is “+++ (+++ = pIC50 ≥5.50)”.

On to `CC(NC(=O)c1cc2ccccc2[nH]1)c1ccc(Cl)cc1` (stereo not shown) [Compound 16], for which the “TDO cellular assay (A172) pIC50” value in test [1] is listed as “+ (+ = pIC50 4.50-<5.00)”. For the same molecule, in test [2], the “IDO cellular assay (SKOV3) pIC50” value is on record as “+++ (+++ = pIC50 ≥5.50)”.

Take `CC(NC(=O)c1cc2ccccc2[nH]1)c1ccccc1` (stereo not shown) [Compound 17]: the “TDO cellular assay (A172) pIC50” value in test [1] is “+ (+ = pIC50 4.50-<5.00)”. Besides, the “IDO cellular assay (SKOV3) pIC50” value in test [2] is recorded as “+++ (+++ = pIC50 ≥5.50)”.

For the molecule `COc1ccc(C(NC(=O)c2cc3ccccc3[nH]2)C2CC2)cc1` (stereo not shown) [Compound 18], the “TDO cellular assay (A172) pIC50” value in test [1] is “− (− = pIC50 <4.50)”. In addition, the “IDO cellular assay (SKOV3) pIC50” value in test [2] is “+++ (+++ = pIC50 ≥5.50)”.

With `CC(NC(=O)c1cc2ccccc2[nH]1)c1ccc(C(F)(F)F)cc1` (stereo not shown) [Compound 19], the “TDO cellular assay (A172) pIC50” value in test [1] is listed as “− (− = pIC50 <4.50)”. Besides, in test [2], the “IDO cellular assay (SKOV3) pIC50” value is reported as “+++ (+++ = pIC50 ≥5.50)”.

As for `Cc1cc(C)c2cc(C(=O)NCc3ccc(C)n3C)[nH]c2c1` [Compound 20], in test [1], the “TDO cellular assay (A172) pIC50” value was “− (− = pIC50 <4.50)”. Moreover, in test [2], the “IDO cellular assay (SKOV3) pIC50” value is listed as “+ (+ = pIC50 4.50-<5.00)”.
